Cytotoxicity data for 99 compounds are collected here from ChEMBL document CHEMBL3507680, “University of Dundee, Gates Library screen for HepG2 cell viability”.

A short description of the data set: Human HepG2 cell viability assay in 384 well format. In kind it is toxicity, cell-based. Also on record: dose 125 nL, time 70.5 hour; cytotoxicity at 70.5 h: concentration not given beside the values. The note with it: HepG2 cells, read-out: Inhibition.
Consider `COc1cccc(OC)c1C(C(=O)O)N(C)Cc1c(C)n[nH]c1C` (centres undefined), for which the cytotoxicity at 70.5 h is -14.8%.
In the case of `O=C1CCCc2occ(C(=O)N3CCCC4(CCNC4)C3)c21` (centres undefined), the cytotoxicity at 70.5 h is -7.04%.
For the compound `c1cnnc(-c2noc(CCN3CCCO3)n2)c1`, the cytotoxicity at 70.5 h was -10.9%.
Take `Cc1ccccc1CCC1CCCN(Cc2nnc(-c3ccco3)o2)C1` (centres undefined): the cytotoxicity at 70.5 h is -12.7%.
Under `Cc1nn(CC(=O)O)c(C)c1NS(=O)(=O)c1cccc2ccccc12` stands -6.18%; under `COCCCN(Cc1cnc(-c2ccccn2)nc1)C1CCN(C)CC1`, -22.2%; under `CCOC(=O)N1CCC(NC(C)c2ccccc2-n2cccn2)CC1` (centres undefined), 35.4%.
Then `OC1(CNCCCN2CCc3ccccc32)CCNC1` (centres undefined), with 22.2%; and `Cc1ccccc1-n1cc(-c2ccnc(N[C@H](CO)C(C)C)n2)cn1`, with -14.1%.
Take `CCOc1ccc2[nH]c(=O)c(CN3CCCC3c3ccccn3)cc2c1` (centres undefined): the cytotoxicity at 70.5 h was -11.8%.
Under `Cc1ccc(C(=O)N2CCC(n3cc(CO)nn3)CC2)cn1` stands 11%; under `CSCc1noc(CNS(=O)(=O)c2cccc(C(=O)NC3CC3)c2)n1`, -10.1%.
Then `Cc1nonc1CN1CC[C@@](O)(C2CCC2)[C@H](C)C1`, with -3.97%; and `CN(C)C(=O)CN1C[C@@H]2CC[C@H](C1)N(Cc1ccccc1OCCO)C2`, with -9.08%; and `CC(C)OC(=O)c1ccc(Cl)c(NC(=O)NCCN2CCOCC2)c1`, with -7.91%.
`Cc1ncsc1CCC(=O)NCc1csc(N2CCCC2)n1`: the cytotoxicity at 70.5 h is -6.59%.
With `COc1ccccc1-n1c(CC(C)C)nnc1SCC(=O)O`, the cytotoxicity at 70.5 h was -2.95%.
Under `CCCc1nc(CNC(=O)Cc2cc(C)no2)cs1` stands 19.8%; under `COc1ccc2c(c1)OCC(Cc1ccc(CN)cn1)C2` (centres undefined), -7.48%; under `CCc1ncc(CN2CCCN(CC3CC3)C(C(C)C)C2)cn1` (centres undefined), 9.86%.
Under `Cc1ccccc1-c1noc(C2CC(C(C)C)=NO2)n1` (centres undefined) stands -0.419%; under `Cc1cc(N(C)CCCn2cccn2)nc(-c2cccnc2)n1`, 11.2%; under `CN(C)c1ncc(-c2c(-c3ccccc3)ncn2C(CO)C(=O)O)cn1` (centres undefined), -10.8%.
Under `COc1cccc(-c2n[nH]cc2-c2nc(CC3CCN(C)CC3)no2)c1` stands -6.75%; under `COc1cccc2c1OCC(C(=O)NCCc1nnc(C)s1)C2` (centres undefined), 8.68%.
On to `CC(Cn1cncn1)NC(=O)c1cn(Cc2ccccc2F)nn1` (centres undefined), for which the cytotoxicity at 70.5 h came out at 0.213%.
Under `O=C(C1CCS(=O)(=O)CC1)N1CCC(Cc2ccc(F)cc2)CC1` stands 3.44%; under `Cc1ccc(F)c(OC2(C(=O)O)CCN(C(=O)c3ccncc3)CC2)c1`, -4.46%.
Under `COc1cccc(OCC2CCCN(C(=O)c3cc(C)n[nH]3)C2)c1` (centres undefined) stands 4.2%.
Then `CCn1cc(S(=O)(=O)NC2CCCN(CCCc3ccccc3)C2)cn1` (centres undefined), with -1%.
As for `CCc1cn[nH]c1C1CCN(C(=O)c2cc(C#N)c(=O)[nH]c2C)CC1`, the cytotoxicity at 70.5 h is -3.13%.
Under `CN1CC2(CCCN(Cc3nnc(-c4cccc(F)c4)o3)C2)OC1=O` (centres undefined) stands -5.83%.
With `Cc1cc(N2C[C@H](NC(=O)C3(C#N)CCOCC3)[C@@H](C(C)C)C2)ccn1`, the cytotoxicity at 70.5 h is -10.5%.
Under `Cc1cc(C)n(-c2ccc(C(=O)NCc3cncn3CC(C)C)cc2)n1` stands -1.13%.
Then `O=C1CC2(CCN(C(=O)Cc3cc4c(cc3Cl)OCCO4)C2)C(=O)N1` (centres undefined), with -5.25%.
Under `Cc1cccc(N2CCC(N3CCCC4(CN(C)C(=O)O4)C3)CC2)c1C` (centres undefined) stands -9.98%.
Regarding `C[C@@H]1CN(C(=O)c2cc(COc3ccc4c(c3)OCO4)[nH]n2)C[C@H](C)O1`, the cytotoxicity at 70.5 h was -3.48%.
Then `CCC(C(=O)NCc1noc(Cc2cccs2)n1)n1cccn1` (centres undefined), with 26%; and `Cc1cc2ccccc2n1CCC(=O)N1CCCC(O)(CN(C)C)CC1` (centres undefined), with -0.891%.
Take `Cc1ccccc1CN(CCO)Cc1ncc[nH]1`: the cytotoxicity at 70.5 h was -12.3%.
Under `CCn1c(CC2CCN(C(=O)c3cc(C(C)C)n[nH]3)CC2)n[nH]c1=O` stands -6.21%.
Then `Nc1nc(Sc2cccs2)cc(N2CC[C@H](CO)[C@H](O)C2)n1`, with 22.1%; and `COc1ccnc(N2C[C@@H]3CC[C@H](C2)N(CC2CC2)C3)n1`, with 4.47%.
Then `CNC(=O)C1CCN(C(=O)c2coc(COc3ccc(OC)cc3)n2)C1` (centres undefined), with -2.27%.
Regarding `Cc1ccc(F)c(OC2(C(=O)O)CCN(C(=O)C3CCCC3)CC2)c1`, the cytotoxicity at 70.5 h was -4.91%.
Under `Cc1c(CN2CCCC(c3[nH]ncc3S(C)(=O)=O)C2)cnn1C` (centres undefined) stands -5.66%.
Then `Fc1cccnc1CN1CCCCC1c1ccn2ccnc2n1` (centres undefined), with 6.23%; and `Nc1cc(CCC2CN(Cc3ccc(C(=O)O)cc3)CCO2)ccn1` (centres undefined), with 23.8%; and `CNc1ccc(CC2CCCN(C(=O)c3cncnc3C)C2)nn1` (centres undefined), with -0.989%.
Under `CCn1cc(C(=O)N2CCCC(c3[nH]ncc3S(C)(=O)=O)C2)cn1` (centres undefined) stands -8.2%; under `O=C(NC[C@]1(O)CN(Cc2ccccc2F)C[C@H]1O)c1ccccn1`, -62.9%.
As for `COc1cccc(-c2noc(C3CCN(Cc4cn(C)nc4C)C3)n2)c1` (centres undefined), the cytotoxicity at 70.5 h is -5.53%.
Under `Cn1cc(C(=O)N2CCCC(Cc3nccs3)C2)cn1` (centres undefined) stands -1.09%; under `Cc1cncc(C2CCCN(Cc3cccn3C)C2)n1` (centres undefined), 0.452%.
Under `CCCn1ccc(C(=O)N2CCOC(c3nc(-c4cccs4)no3)C2)n1` (centres undefined) stands 4.34%.
As for `CCn1cc(CN2CCCC(c3[nH]ncc3S(C)(=O)=O)C2)cn1` (centres undefined), the cytotoxicity at 70.5 h is 1.9%.
Then `Fc1ccc(CN2CCCC2c2cncc(-n3ccnc3)n2)cc1` (centres undefined), with -1.28%.
Then `COCC(=O)N1CCC(c2cc(C(F)(F)F)n3ccnc3n2)CC1`, with -8.3%; and `CC1CN(C)CCN1C(=O)c1ccn(-c2ccccc2Cl)n1` (centres undefined), with 16.7%.
Then `c1cc(CN2CCCC2c2noc(C3CC3)n2)on1` (centres undefined), with -15.8%; and `COc1c(C2CCCN2C(=O)c2cc(C)on2)c(C)nn1C` (centres undefined), with -8.13%.
For the compound `CNS(=O)(=O)c1ccc(CNC(=O)c2cccc(C)n2)cc1`, the cytotoxicity at 70.5 h was 16.9%.
Under `O=c1oc(-c2ccc(F)cc2)nn1CN1CCSCC1` stands -15%; under `Cc1noc(C(C)C)c1C(=O)NCc1cccc(CN(C)C)c1`, -1.69%.
Under `CC1CN(Cc2ccccn2)CCN1c1ccc2nncn2n1` (centres undefined) stands -0.942%.
Then `CCc1nnc2n1CCN(C(=O)c1cc3cc(C)ccc3[nH]1)C2`, with -13.6%; and `CCOc1cccc(CNC2CCCN(Cc3noc(C)n3)C2)c1` (centres undefined), with -12.1%.
On to `CCc1nnc2n1CCN(C(=O)c1cc3ccccc3[nH]1)C2`, for which the cytotoxicity at 70.5 h was -7.28%.
Then `CN1CCN(C2CCN(CCOc3ccc(Cl)cc3)CC2)C1=O`, with -6.64%; and `CN1CCN(C2CCN(CCOc3cccc(Cl)c3)CC2)C1=O`, with -7.02%.
Take `CN1CCN(C2CCN(CCOc3ccc(C#N)cc3)CC2)C1=O`: the cytotoxicity at 70.5 h is -5.65%.
Under `CCc1nc(C2CCCN2CC(=O)Nc2nnc(C)s2)no1` (centres undefined) stands -13.4%.
Then `COc1c(C2CCCN2C(=O)c2cnc[nH]2)c(C)nn1C` (centres undefined), with -2.57%; and `CCN1CCN(C2CCN(CCOc3ccc(F)cc3)CC2)C1=O`, with -11.7%.
Then `Cc1cnc(CN2CCN(c3ccc4nncn4n3)C(C)C2)cn1` (centres undefined), with -15.4%; and `Cc1nc(CN2CCN(c3ccc4nncn4n3)C(C)C2)oc1C` (centres undefined), with -8.63%.
For `COc1ccc(CNC(C)Cn2cccn2)cc1F` (centres undefined), the cytotoxicity at 70.5 h is -1.59%.
Then `c1ccc(-c2nc(CN3CCCC3Cn3cccn3)no2)cc1` (centres undefined), with 1.06%; and `COc1ccc(-n2ccc(C(=O)NCCN3CCCCCC3)n2)cc1`, with -2.62%.
For the compound `O=C(Cc1cccc(F)c1)NCCNCc1cccnc1`, the cytotoxicity at 70.5 h is -4.1%.
Then `COc1cn(-c2ccccc2)nc1C(=O)NCCN1CCCC(C)C1` (centres undefined), with -7.85%; and `O=C1CN(c2ccc(CNC(=O)NCC3CCOC3)cc2)CCN1` (centres undefined), with -5.59%; and `CC1CCCN(CCNC(=O)c2ccn(-c3cccc(F)c3)n2)C1` (centres undefined), with 1.27%.
Turning to `c1cc2n(n1)CC(CNCc1ccc(OC3CCCC3)nc1)CN2` (centres undefined), the cytotoxicity at 70.5 h was -14.1%.
Then `c1ccc(-c2nccc(CNC3CCc4ncnn4C3)n2)cc1` (centres undefined), with -4.99%; and `COc1cccc(S(=O)(=O)NC(=O)CC2CCCO2)c1` (centres undefined), with 21.5%; and `Cc1cc(C[S+]([O-])CC(=O)NCc2cccc(Cl)c2)no1` (centres undefined), with -10.3%.
Then `O=C(Cc1ccc(F)cc1)NCCNCc1cccc(O)c1`, with 0.177%; and `N#Cc1cccc(CNCCNC(=O)Cc2cccc(F)c2)c1`, with 26.7%.
Regarding `c1ccc(Cc2noc(CN3CCCC3Cn3cccn3)n2)cc1` (centres undefined), the cytotoxicity at 70.5 h was -7.45%.
Under `CC(=O)NC(C)C(=O)NCc1ccc(N2CCNC(=O)C2)cc1` (centres undefined) stands -15.7%; under `COc1ccc(S(=O)(=O)NC(=O)COC2CCCCC2)cc1C`, -4.48%; under `COc1ccc(S(=O)(=O)NC(=O)COC2CCCCC2)cc1`, -7.04%.
Under `CCn1cnnc1C1CCN(C(=O)c2cccc(C)c2C)CC1` stands 30.1%; under `CC(NC(=O)Cn1cccn1)c1ccc2c(c1)OCCO2` (centres undefined), -11.1%; under `CCn1cnnc1CNC(=O)N1CCN(c2ccccc2OC)CC1`, -9.83%.
Under `Cc1noc(CNc2ccc(C(=O)N3CCCC(C)C3)cc2C)n1` (centres undefined) stands -6.32%.
For `COc1cc(CNC(C)Cn2cccn2)cc(Cl)c1OC` (centres undefined), the cytotoxicity at 70.5 h is -4.38%.
Then `COc1cc(CNC(C)Cn2cccn2)cc2c1OCCO2` (centres undefined), with -4.44%.
